Source: patent US8138191B2, “Inhibitor compounds and cancer treatment methods” (Critical Outcome Technologies Inc., priority 2007, dated 2012)

What was measured:
[1] = system: DMS114 and SHP77 cell lines; assay: Microarray differential gene expression analysis; type: cell-based, human; details: 150 or 300 nM, 6 h
Procedure: For each cell line, four sets of microarray experiments were performed, with each set consisting of control and treated cells exposed for 6 h either to DMSO or COTI-2 at 150 or 300 nM total concentration. Total RNA was prepared with RNeasy (Qiagen) and converted to Cy3 or Cy5-labelled cRNA according to procedures provided with the linear amplification kit from Agilent Technologies. Two hundred […] of labeled cRNA were hybridized to 4×44K Agilent whole genome microarrays, the arrays were washed, scanned and relevant features were extracted according to the manufacturer's protocol and further analyzed as described by Wolber et al. (Methods in Enzymology 410:28-57), which is incorporated herein by reference in its entirety.
Cy5 and Cy3 features were extracted and normalized by median centering the expression values relative to the median value of the 8 hybridization experiments performed on each microarray slide. […] Statistically significant changes in gene expression between treatment and control groups were determined by SAM analysis using TIGR software from The Institute of Genomic Research or by t tests with false discovery correction. Only genes that were differentially expressed in all 4 biologically-independent groups were further analyzed. […] The intersection of common genes was determined using GeneVenn (http://mcbc.usm.edu/qenevenn/genevenn.htm).

CYP2B6 = target: T1, CYP2B6 (Homo sapiens, UniProt P20813); assay: in vitro; details: both
T1 sequence (P20813 1-491): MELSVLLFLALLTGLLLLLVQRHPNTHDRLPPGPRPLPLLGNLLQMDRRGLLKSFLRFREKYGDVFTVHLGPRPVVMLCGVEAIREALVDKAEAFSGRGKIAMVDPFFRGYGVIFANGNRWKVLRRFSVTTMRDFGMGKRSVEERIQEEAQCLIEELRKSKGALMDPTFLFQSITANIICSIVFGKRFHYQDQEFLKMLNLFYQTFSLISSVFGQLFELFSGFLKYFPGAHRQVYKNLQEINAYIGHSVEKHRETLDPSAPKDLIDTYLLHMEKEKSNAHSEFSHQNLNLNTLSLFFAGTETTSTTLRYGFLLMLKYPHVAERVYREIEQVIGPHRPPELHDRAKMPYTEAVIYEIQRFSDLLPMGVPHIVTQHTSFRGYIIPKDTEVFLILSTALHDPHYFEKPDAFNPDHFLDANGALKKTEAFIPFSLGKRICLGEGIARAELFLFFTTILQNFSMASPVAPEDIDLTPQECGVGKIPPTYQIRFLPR

[2] = system: Akt kinase activity in SHP-77 cells; assay: Akt kinase activity (immunoprecipitated Akt, GSK-3 phosphorylation), SHP-77; details: SHP-77, 250 nM, 2-24 hrs

## S=C(N/N=C1/CCCc2cccnc21)N1CCN(c2ccccn2)CC1 [COTI-2]
[1]
  AKT gene expression: down-regulated
  Rictor (mTOR-Rictor) expression: down-regulation of Rictor
CYP2B6; human liver microsomes, pH 7.4, probe bupropion (10 µM)
  inhibition at 15 min, 10 µM: 5%
CYP2B6; liver microsomes, pH 7.4, probe bupropion
  inhibition at 15 min, 10 µM: < 50%
[2]
  Akt kinase activity: more gradual decrease
